According to PMC9127750, “Structure-based design of CDC42 effector interaction inhibitors for the treatment of cancer” (Cell reports, 2022):
Values joined by “and” are separate entries in the source; they are usually repeats but may differ in a detail not shown here. Identical values can stand only once.

Tested on: WM3248 melanoma cells, 486 antibodies
Assay: Reverse phase protein arrays (RPPA)
Assay type: cell-based, Human
From the text: Pellets were snap frozen in liquid nitrogen and shipped to MD Anderson Cancer Center core RPPA facility for RPPA analysis (Table S5). Three biological replicates for each sample were generated.
Nomenclatures on the RPPA heatmaps: name_of_antibody.species_of_antibody.status_of_antibody. V - antibody validated; C - validation of antibody in progress; Q - antibody nonspecific; E – under evaluation; antibodies raised in M - mouse, G - goat, R - rabbit, or T - rat.

CN(C)c1cccc(Nc2cc(-c3ccccc3)nc(C3CCNCC3)n2)c1 [ARN22089, N1,N1-dimethyl-N3-(6-phenyl-2-(piperidin-4-yl)pyrimidin-4-yl)benzene-1,3-diamine]
CD31.M.V normalized signal (Norm_10 Average): 0.960 | CD38.R.C normalized signal (Norm_10 Average): 0.936 | CD45.M.V normalized signal (Norm_10 Average): 0.964 | CD68.M.C normalized signal (Norm_10 Average): 1.001 | CD134.R.V normalized signal (Norm_10 Average): 0.970 | CD171.M.V normalized signal (Norm_10 Average): 0.831 | CDK1_pT14.R.C normalized signal (Norm_10 Average): 0.888 | CDK9.R.V normalized signal (Norm_10 Average): 0.988 | CDKN2A.R.C normalized signal (Norm_10 Average): 0.963 | CDT1.R.V normalized signal (Norm_10 Average): 0.925 | CENP.A.R.V normalized signal (Norm_10 Average): 0.967 | CHD1L.R.V normalized signal (Norm_10 Average): 1.025 | COG3.R.V normalized signal (Norm_10 Average): 1.013 | CRABP1.R.C normalized signal (Norm_10 Average): 0.993 | CRABP2.R.V normalized signal (Norm_10 Average): 0.915 | CSK.R.C normalized signal (Norm_10 Average): 0.971 | Calnexin.R.V normalized signal (Norm_10 Average): 1.021 | Caspase.3.cleaved.R.C normalized signal (Norm_10 Average): 0.926 | Caspase.7.cleaved..R.C normalized signal (Norm_10 Average): 1.030 | Caspase.8.M.Q normalized signal (Norm_10 Average): 0.998 | Caspase.8.cleaved.R.C normalized signal (Norm_10 Average): 0.924 | Cdc6.R.V normalized signal (Norm_10 Average): 0.962 | Cdc42.R.C normalized signal (Norm_10 Average): 0.966 | Chk1.M.C normalized signal (Norm_10 Average): 0.942 | Chk1_pS296.R.V normalized signal (Norm_10 Average): 0.948 | Chk1_pS345.R.C normalized signal (Norm_10 Average): 1.019 | Chk2.M.V normalized signal (Norm_10 Average): 0.971 | Chk2_pT68.R.C normalized signal (Norm_10 Average): 0.963 | Claudin.7.R.V normalized signal (Norm_10 Average): 1.252 | Collagen.VI.R.V normalized signal (Norm_10 Average): 1.085 | Complex.II.Subunit.M.V normalized signal (Norm_10 Average): 1.079 | Connexin.43.R.C normalized signal (Norm_10 Average): 1.004 | Cox2.R.C normalized signal (Norm_10 Average): 1.057 | Creb.R.C normalized signal (Norm_10 Average): 0.975 | CtIP.R.V normalized signal (Norm_10 Average): 0.953 | Cyclin.B1.R.V normalized signal (Norm_10 Average): 0.844 | Cyclin.D1.R.C normalized signal (Norm_10 Average): 1.008 | Cyclin.D3.M.V normalized signal (Norm_10 Average): 0.934 | Cyclophilin.F.M.V normalized signal (Norm_10 Average): 0.980 | DAPK1_pS308.M.C normalized signal (Norm_10 Average): 1.809 | DAPK2.R.C normalized signal (Norm_10 Average): 0.982 | DDB.1.R.V normalized signal (Norm_10 Average): 0.823 | DDR1.R.V normalized signal (Norm_10 Average): 1.020 | DDR1_pY513.R.C normalized signal (Norm_10 Average): 1.009 | DJ1.R.V normalized signal (Norm_10 Average): 0.997 | DM.Histone.H3.R.V normalized signal (Norm_10 Average): 0.900 | DM.K9.Histone.H3.M.V normalized signal (Norm_10 Average): 0.982 | DNA.Ligase.IV.R.C normalized signal (Norm_10 Average): 0.937 | DNA_POLG.R.V normalized signal (Norm_10 Average): 1.080 | c.Jun_pS73.R.V normalized signal (Norm_10 Average): 0.793 | c.Kit.R.V normalized signal (Norm_10 Average): 1.213 | c.Met_pY1234_Y1235.R.V normalized signal (Norm_10 Average): 0.933 | c.Myc.R.C normalized signal (Norm_10 Average): 1.350 | cdc2_pY15.R.C normalized signal (Norm_10 Average): 0.855 | cdc25C.R.V normalized signal (Norm_10 Average): 0.849 | C.Raf.R.C normalized signal (Norm_10 replicates): 1.081 and 0.699 and 0.805 | C.Raf_pS338.R.V normalized signal (Norm_10 replicates): 0.823 and 0.996 | CA9.R.C normalized signal (Norm_10 replicates): 0.873 and 0.916 | CD2.M.C normalized signal (Norm_10 replicates): 0.952 and 0.983 and 0.955 | CD4.R.V normalized signal (Norm_10 replicates): 0.995 and 0.882 and 0.915 | CD5.M.C normalized signal (Norm_10 replicates): 0.953 and 1.022 | CD20.R.C normalized signal (Norm_10 replicates): 0.859 and 1.349 and 1.680 | CD26.R.V normalized signal (Norm_10 replicates): 0.886 and 0.919 and 1.217 | CD29.M.V normalized signal (Norm_10 replicates): 0.978 and 0.970 | CD31.M.V normalized signal (Norm_10 replicates): 0.934 and 1.028 and 0.917 | CD38.R.C normalized signal (Norm_10 replicates): 1.013 and 0.750 and 1.046 | CD44.R.C normalized signal (Norm_10 replicates): 0.886 and 1.140 | CD45.M.V normalized signal (Norm_10 replicates): 0.989 and 0.991 | CD49b.M.V normalized signal (Norm_10 replicates): 1.113 and 1.053 | CD68.M.C normalized signal (Norm_10 replicates): 0.973 and 0.957 | CD74.M.V normalized signal (Norm_10 replicates): 0.883 and 1.031 and 0.993 | CD134.R.V normalized signal (Norm_10 replicates): 0.926 and 1.018 and 0.966 | CD171.M.V normalized signal (Norm_10 replicates): 0.567 and 1.011 and 0.915 | CDK1_pT14.R.C normalized signal (Norm_10 replicates): 0.950 and 0.703 and 1.011 | CDK9.R.V normalized signal (Norm_10 replicates): 0.925 and 1.065 and 0.973 | CDKN2A.R.C normalized signal (Norm_10 replicates): 0.890 and 1.007 and 0.992 | CDT1.R.V normalized signal (Norm_10 replicates): 0.844 and 1.019 | CENP.A.R.V normalized signal (Norm_10 replicates): 0.909 and 0.955 | CHD1L.R.V normalized signal (Norm_10 replicates): 0.986 and 0.996 | CIITA.R.C normalized signal (Norm_10 replicates): 0.878 and 1.138 and 1.266 | COG3.R.V normalized signal (Norm_10 replicates): 1.048 and 1.011 and 0.981 | CRABP1.R.C normalized signal (Norm_10 replicates): 0.873 and 1.131 and 0.976 | CRABP2.R.V normalized signal (Norm_10 replicates): 0.772 and 1.150 and 0.822 | CREB_pS133.R.C normalized signal (Norm_10 replicates): 1.250 and 0.794 and 1.214 | CSK.R.C normalized signal (Norm_10 replicates): 0.836 | Calnexin.R.V normalized signal (Norm_10 replicates): 0.966 and 1.158 and 0.937 | Caspase.3.cleaved.R.C normalized signal (Norm_10 replicates): 1.008 and 0.891 and 0.879 | Caspase.7.cleaved..R.C normalized signal (Norm_10 replicates): 0.971 and 1.258 and 0.862 | Caspase.8.M.Q normalized signal (Norm_10 replicates): 0.852 and 1.055 | Caspase.8.cleaved.R.C normalized signal (Norm_10 replicates): 0.985 and 0.881 and 0.907 | Caveolin.1.R.V normalized signal (Norm_10 replicates): 0.713 and 1.122 and 1.012 | Cdc6.R.V normalized signal (Norm_10 replicates): 0.858 and 0.962 | Cdc42.R.C normalized signal (Norm_10 replicates): 0.895 and 1.029 and 0.973 | Chk1.M.C normalized signal (Norm_10 replicates): 0.842 and 0.983 and 1.001 | Chk1_pS296.R.V normalized signal (Norm_10 replicates): 1.115 and 0.789 and 0.942 | Chk1_pS345.R.C normalized signal (Norm_10 replicates): 1.171 and 0.894 and 0.992 | Chk2.M.V normalized signal (Norm_10 replicates): 0.819 and 1.005 | Chk2_pT68.R.C normalized signal (Norm_10 replicates): 1.200 and 0.766 and 0.922 | Claudin.7.R.V normalized signal (Norm_10 replicates): 0.930 and 1.663 and 1.163 | Collagen.VI.R.V normalized signal (Norm_10 replicates): 1.420 and 0.935 and 0.899 | Complex.II.Subunit.M.V normalized signal (Norm_10 replicates): 0.889 and 1.275 | Connexin.43.R.C normalized signal (Norm_10 replicates): 1.260 and 0.815 | Coup.TFII.R.C normalized signal (Norm_10 replicates): 0.934 and 0.868 | Cox2.R.C normalized signal (Norm_10 replicates): 1.023 and 1.193 and 0.953 | Cox.IV.R.V normalized signal (Norm_10 replicates): 0.958 and 0.990 and 0.892 | Creb.R.C normalized signal (Norm_10 replicates): 1.051 and 0.927 | CtIP.R.V normalized signal (Norm_10 replicates): 1.000 and 0.898 and 0.962 | Cyclin.B1.R.V normalized signal (Norm_10 replicates): 0.661 and 0.815 and 1.055 | Cyclin.D1.R.C normalized signal (Norm_10 replicates): 0.958 and 1.081 and 0.985 | Cyclin.D3.M.V normalized signal (Norm_10 replicates): 0.818 and 0.939 | Cyclin.E1.R.V normalized signal (Norm_10 replicates): 0.893 | Cyclophilin.F.M.V normalized signal (Norm_10 replicates): 0.808 and 1.114 and 1.018 | D.a.Tubulin.R.V normalized signal (Norm_10 replicates): 0.881 and 0.967 and 0.966 | DAPK1_pS308.M.C normalized signal (Norm_10 replicates): 1.302 and 1.636 and 2.488 | DAPK2.R.C normalized signal (Norm_10 replicates): 0.965 and 1.028 and 0.953 | DDB.1.R.V normalized signal (Norm_10 replicates): 0.974 and 0.680 and 0.815 | DDR1.R.V normalized signal (Norm_10 replicates): 1.019 and 1.079 and 0.961 | DDR1_pY513.R.C normalized signal (Norm_10 replicates): 0.985 and 1.129 and 0.914 | DJ1.R.V normalized signal (Norm_10 replicates): 0.990 and 1.026 and 0.974 | DM.Histone.H3.R.V normalized signal (Norm_10 replicates): 0.928 and 0.824 | DM.K9.Histone.H3.M.V normalized signal (Norm_10 replicates): 0.889 and 1.013 | DNA.Ligase.IV.R.C normalized signal (Norm_10 replicates): 0.935 and 0.869 and 1.008 | DNA_POLG.R.V normalized signal (Norm_10 replicates): 1.018 and 1.199 and 1.023 | c.Jun_pS73.R.V normalized signal (Norm_10 replicates): 0.788 and 0.785 and 0.805 | c.Kit.R.V normalized signal (Norm_10 replicates): 1.136 and 1.324 | c.Met_pY1234_Y1235.R.V normalized signal (Norm_10 replicates): 0.975 and 0.946 and 0.879 | c.Myc.R.C normalized signal (Norm_10 replicates): 2.093 and 1.046 | cGAS.R.V normalized signal (Norm_10 replicates): 0.953 and 1.217 and 0.956 | cdc2_pY15.R.C normalized signal (Norm_10 replicates): 1.104 and 0.582 and 0.878 | cdc25C.R.V normalized signal (Norm_10 replicates): 0.721 and 0.808 and 1.017 | MYH11.R.C Average (Norm_20, normalized to Norm_0): 1.248 | Myosin.IIa.R.C Average (Norm_20, normalized to Norm_0): 1.147 | Myosin.IIa_pS1943.R.V Average (Norm_20, normalized to Norm_0): 1.174 | Myt1.R.C Average (Norm_20, normalized to Norm_0): 0.994 | N.Cadherin.R.V Average (Norm_20, normalized to Norm_0): 0.988 | N.Ras.M.V Average (Norm_20, normalized to Norm_0): 0.878 | NAPSIN.A.R.C Average (Norm_20, normalized to Norm_0): 1.011 | NDRG1_pT346.R.V Average (Norm_20, normalized to Norm_0): 1.336 | NDUFB4.R.V Average (Norm_20, normalized to Norm_0): 1.022 | NRF2.R.C Average (Norm_20, normalized to Norm_0): 0.907 | Notch1.R.V Average (Norm_20, normalized to Norm_0): 0.937 | Notch1.cleaved.R.V Average (Norm_20, normalized to Norm_0): 0.937 | Notch3.R.C Average (Norm_20, normalized to Norm_0): 0.994 | Oct.4.R.C Average (Norm_20, normalized to Norm_0): 1.121 | P.Cadherin.R.C Average (Norm_20, normalized to Norm_0): 1.346 | PAI.1.M.V Average (Norm_20, normalized to Norm_0): 0.985 | PAICS.R.C Average (Norm_20, normalized to Norm_0): 0.928 | PAK1.R.V Average (Norm_20, normalized to Norm_0): 0.872 | PAK4.R.V Average (Norm_20, normalized to Norm_0): 0.993 | PAK_pS474_S602_S560.R.V Average (Norm_20, normalized to Norm_0): 1.208 | PAR.R.C Average (Norm_20, normalized to Norm_0): 2.108 | PARG.R.C Average (Norm_20, normalized to Norm_0): 1.394 | PARP.R.V Average (Norm_20, normalized to Norm_0): 1.133 | PAX6.R.V Average (Norm_20, normalized to Norm_0): 0.967 | PAX8.R.C Average (Norm_20, normalized to Norm_0): 0.941 | PCNA.M.C Average (Norm_20, normalized to Norm_0): 0.869 | PD.1.R.V Average (Norm_20, normalized to Norm_0): 0.984 | PD.L1.R.C Average (Norm_20, normalized to Norm_0): 0.970 | PDH.M.V Average (Norm_20, normalized to Norm_0): 0.925 | PDHA1.R.V Average (Norm_20, normalized to Norm_0): 0.956 | PDHK1.R.C Average (Norm_20, normalized to Norm_0): 0.952 | PDK1.R.V Average (Norm_20, normalized to Norm_0): 1.116 | PDK1_pS241.R.V Average (Norm_20, normalized to Norm_0): 0.965
